According to paper PMC11477141, “Chemokine Receptor N-Terminus Charge Dictates Reliance on Post-Translational Modifications for Effective Ligand Capture and Following Boosting by Defense Peptides” (International Journal of Molecular Sciences, 2024):
Where no end group is shown, it is not given here.

Assays:
[1] = molecular target: T1, CCR1 (Homo sapiens, UniProt P32246); assay: BRET CAMYEL cAMP sensor assay of ligand-induced Gαi signaling via CCR1; type: cell-based; settings: n = 3
T1 construct: expressed in transfected cells; host or cells: CHO-K1, CHO-pgsB618 (GAG-minus), HEK293 WT / DeltaSia / sC
T1 sequence (P32246 1-355): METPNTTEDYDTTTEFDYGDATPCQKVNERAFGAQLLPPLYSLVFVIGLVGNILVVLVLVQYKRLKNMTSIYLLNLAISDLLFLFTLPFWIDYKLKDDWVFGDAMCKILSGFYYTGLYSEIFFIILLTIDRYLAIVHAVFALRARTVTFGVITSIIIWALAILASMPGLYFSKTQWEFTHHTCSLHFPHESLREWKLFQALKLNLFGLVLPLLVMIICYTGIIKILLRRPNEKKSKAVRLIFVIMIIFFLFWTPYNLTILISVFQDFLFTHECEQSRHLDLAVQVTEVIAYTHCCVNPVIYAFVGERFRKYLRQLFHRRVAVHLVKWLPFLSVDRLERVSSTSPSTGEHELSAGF
Procedure: For quantification of signaling initiated immediate downstream of receptor activation, we used the cAMP binding CAMYEL sensor to perform bioluminescence resonance energy transfer (BRET)-based assays. Shortly, in this assay increased receptor activation leads to an increase in BRET ratio. For detailed information see the Materials and Methods section.
In signaling assays testing the boosting ability of basic peptides, transfected cells were aliquoted into 96-well plates in the presence of 10 µM peptide or PBS vehicle. After R-Luc substrate addition, chemokines were added to reach final concentrations ranging from 0–100 nM (0, 0.1, 1, 10, and 100 nM) and forskolin was applied before reading emission at 475 and 525 nm.
BRET measurements of Gαi signaling and β-arrestin recruitment: Cells were seeded in 6-well plates (500,000 cells/well) and transiently transfected the following day. For BRET measurements of Gαi signaling, cells were transfected with vectors encoding the human chemokine receptors as indicated (160 ng/well) and the CAMYEL sensor (cAMP sensor, YFP-Epac-RLuc) (840 ng/well) using Lipofectamine (6 µL/well). Briefly, DNA was dissolved in 125 µL OPTI-MEM and Lipofectamine was dissolved in 125 µL OPTI-MEM. The DNA and Lipofectamine solutions were combined into a transfection mixture. The transfection mixture was added dropwise to cells incubated in OPTI-MEM (1 mL/well). Transfections were terminated after 5 h by adding 1 mL of fresh culture medium on top of the OPTI-MEM. The following day the cells were loosened from the plates in PBS with 5 mM glucose and subsequently aliquoted in white 96-well iso plates (~25,000 cells/well). When using C21TP variants and defense peptides (hBD2 and histatin), these were added to a final concentration of 10 μM/well, while an equal amount of PBS was added to control cells. The bioluminescence substrate coelenterazine was added to a final conc. of 5 µM. After 10 min, varying ligand concentrations were added. For BRET measurements of Gαi signaling, forskolin was added 5 min after the addition of the ligand, to a final conc. of 5 µM. The plates were kept in the dark at all times. A Perkin Elmer Envision machine was used for measuring the emission signals at 530 and 480 nm. The BRET signal is determined as the ratio eYFP (530 nm)/Rluc (480 nm).
BRET principle with CAMYEL: For quantification of signaling initiated immediately downstream of receptor activation, we used the cAMP binding CAMYEL sensor to perform bioluminescence resonance energy transfer (BRET) based assays. In this assay we measure changes in intracellular cAMP levels in response to receptor activation. Activation of chemokine receptors lead to a decrease in cAMP through inhibition of adenylate cyclase (AC). In the current setup we initially add forskolin that stimulates AC directly to induce an increase in intracellular cAMP, and we then measure the ability of a ligand (chemokine) to counteract the forskolin-induced increase in cAMP. The cAMP sensor (CAMYEL cAMP sensor, YFP-Epac-RLuc) carries the donor Renilla luciferase (Rluc) and the acceptor YFP. Coelenterazine is a substrate for Rluc that will emit light at around 475 nm upon enzymatic cleavage catalyzed by Rluc. When Rluc and YFP are in close proximity, the energy from the emitted light from coelenterazine can be transferred to YFP, resulting in an excitation of YFP, leading to a BRET signal around 525 nm. EPAC is a cAMP binding protein that changes conformation upon cAMP binding. During low cAMP concentrations, Rluc and YFP are near each other, and a strong BRET signal at 525 nm is obtained. When cAMP levels increase, cAMP will bind to EPAC, creating a conformational change, separating Rluc and YFP, reducing the BRET ratio, and increasing the emission from Rluc at 475 nm. Thus, by measuring the ratio between the cAMP-bound (475 nm) and the cAMP-free (525 nm) state of CAMYEL we obtain a measure of receptor activation. […]

[2] = system: Y14Y15AA-CCR5; assay: BRET CAMYEL Gαi signaling via Y14Y15AA-CCR5; type: cell-based, human; settings: CHO cells, n = 3
Procedure: BRET measurements of Gαi signaling and β-arrestin recruitment: Cells were seeded in 6-well plates (500,000 cells/well) and transiently transfected the following day. For BRET measurements of Gαi signaling, cells were transfected with vectors encoding the human chemokine receptors as indicated (160 ng/well) and the CAMYEL sensor (cAMP sensor, YFP-Epac-RLuc) (840 ng/well) using Lipofectamine (6 µL/well). Briefly, DNA was dissolved in 125 µL OPTI-MEM and Lipofectamine was dissolved in 125 µL OPTI-MEM. The DNA and Lipofectamine solutions were combined into a transfection mixture. The transfection mixture was added dropwise to cells incubated in OPTI-MEM (1 mL/well). Transfections were terminated after 5 h by adding 1 mL of fresh culture medium on top of the OPTI-MEM. The following day the cells were loosened from the plates in PBS with 5 mM glucose and subsequently aliquoted in white 96-well iso plates (~25,000 cells/well). […] The BRET signal is determined as the ratio eYFP (530 nm)/Rluc (480 nm).
BRET principle with CAMYEL: For quantification of signaling initiated immediately downstream of receptor activation, we used the cAMP binding CAMYEL sensor to perform bioluminescence resonance energy transfer (BRET) based assays. […] The BRET ratio is determined as the ratio between YFP/Rluc, and an increase in BRET ratio indicates a decrease in cAMP and thus increased chemokine receptor activation. […]

[3] = CHO-K1 cells, 10 µM peptide, chemokine 0-100 nM
[4] = HEK293 WT, DeltaSia and sC cells, 10 µM peptide

| Substance | LogEC50 of CCL5-induced Gαi signaling via CCR1 ([1]; CHO GAG-minus cells (CHO-pgsB618)) | LogEC50 of CCL5-induced Gαi signaling via CCR1 ([1]; CHO GAG-plus (WT CHO-K1) cells) | Gαi signaling via CCR1 in DeltaSia and sC cells ([1]; HEK293 DeltaSia and sC, CCL5 oligomerization variants experiment) | Gαi signaling via CCR1 in DeltaSia and sC cells compared to WT cells ([1]; HEK293 DeltaSia and sC) | Gαi signaling via Y14Y15AA-CCR5 compared to WT-CCR5 [2] | boosting of CCL5 signaling via CCR1 in GAG-plus and GAG-minus cells ([1]; CHO GAG-plus and CHO GAG-minus (CHO-pgsB618) cells, 10 µM peptide) | boosting of CCL5-induced Gαi signaling via CCR1 [1, 3] | boosting of CCL7-induced Gαi signaling via CCR1 [1, 3] | effect on CCL3-induced Gαi signaling via CCR1 [1, 3] | boosting of signaling by CCL5, E26A and E66A via CCR1 ([1]; HEK293 DeltaSia cells, 10 µM peptide) | boosting of signaling by CCL5, E26A and E66A via CCR1 ([1]; HEK293 WT cells, 10 µM peptide) | boosting of CCL3 signaling via CCR1 [1, 4] | boosting of CCL5 signaling via CCR1 [1, 4] | boosting of CCL7 signaling via CCR1 [1, 4] | boosting of signaling by CCL5, E26A and E66A via CCR1 ([1]; HEK293 sC cells, 10 µM peptide) | boosting of CCL5 signaling via Y1415AA receptor variant ([2]; 10 µM peptide) |
| --- | --- | --- | --- | --- | --- | --- | --- | --- | --- | --- | --- | --- | --- | --- | --- | --- |
| CCL5: human chemokine from Peprotech, overall basic | −9.42 ± 0.131 | −8.89 ± 0.133 | remains high | persists in DeltaSia and sC to almost the same high level as observed in WT cells | completely abolished | – | – | – | – | – | – | – | – | – | – | – |
| RKDRGASKTGKKGKGSKGCKRTERSQTPKGP [C21TP^81-111] | – | – | – | – | – | boosted | boosted | boosted | not affected | tendency for boosting | boosting occurs with all three versions of CCL5 | not boosted | preserved across all three cell lines | persists | significant boosting | maintained |
